Source: PubChem BioAssay (NCI)
Where “and” joins values, the source holds several entries; their conditions need not be identical. Identical values can stand only once.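 Exposure lasted 48 hours, with cells grown in 96-well plates and compounds tested at five concentrations. The concentration for 50% growth inhibition is given as GI50. Definition used: TGI = concentration required for complete inhibition of growth.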

Tests used:
Test in all cases: DTP human tumour cell line panel, 48 h
OVCAR-5 ovarian = test system: OVCAR-5 ovarian
BT-549 breast = test system: BT-549 breast
SK-MEL-28 melanoma = test system: SK-MEL-28 melanoma
UACC-257 melanoma = test system: UACC-257 melanoma
OVCAR-3 ovarian = test system: OVCAR-3 ovarian
MDA-MB-435 = test system: MDA-MB-435
MCF7 breast = test system: MCF7 breast
SK-MEL-2 melanoma = test system: SK-MEL-2 melanoma
MALME-3M melanoma = test system: MALME-3M melanoma
UACC-62 melanoma = test system: UACC-62 melanoma

Structure (SMILES) | GI50 (OVCAR-5 ovarian) | TGI (OVCAR-5 ovarian) | GI50 (BT-549 breast) | TGI (BT-549 breast) | GI50 (SK-MEL-28 melanoma) | TGI (SK-MEL-28 melanoma) | GI50 (UACC-257 melanoma) | TGI (UACC-257 melanoma) | GI50 (OVCAR-3 ovarian) [µM] | TGI (OVCAR-3 ovarian) [µM] | GI50 (MDA-MB-435) | TGI (MDA-MB-435) | GI50 (MCF7 breast) | TGI (MCF7 breast) | GI50 (SK-MEL-2 melanoma) | TGI (SK-MEL-2 melanoma) | GI50 (MALME-3M melanoma) | TGI (MALME-3M melanoma) | TGI (UACC-62 melanoma) | GI50 (UACC-62 melanoma)
C=C1C(=O)O[C@H]2[C@H]1CC/C(COC(=O)NCCc1ccc(Br)cc1)=C\CC[C@@]1(C)O[C@@H]21 | 1.96 µM | 4.47 µM | 1.1 µM | 2.6 µM | 1.47 µM | 3.12 µM | 1.63 µM | 3.09 µM | 0.984 | 2.27 | 1.28 µM | 2.81 µM | 0.417 µM | 1.82 µM | 1.58 µM | 3.17 µM | 2.09 µM | 3.77 µM |  | 
O=Cc1cc2sc(C=O)cc2s1 |  | > 100 µM |  |  |  |  |  | > 100 µM |  | > 100 |  |  |  |  |  |  |  | > 100 µM | > 100 µM | 
O=C1C2=C(c3ccccc31)C(c1ccc([N+](=O)[O-])cc1)NC(=S)N2 (stereo not given) |  | > 100 µM |  |  |  | > 100 µM |  | > 100 µM |  | > 100 |  |  |  |  |  | > 100 µM |  | > 100 µM | > 100 µM | 
COc1ccc(N2CCN(c3nc(-c4ccccn4)nc4sc5c(c34)CCCCCC5)CC2)cc1 | 51.7 µM | > 100 µM | 6.92 µM | > 100 µM | > 100 µM | > 100 µM | 7.22 µM | > 100 µM | 8.61 | > 100 | 5.49 µM | > 100 µM | 3.15 µM | > 100 µM | 18.3 µM | > 100 µM |  |  | > 100 µM | 6.86 µM
CCCCCCCC(=O)[O-].N.N.N.N.N.[Co+3].[O-][Cl+3]([O-])([O-])[O-] | > 100 µM | > 100 µM |  |  | > 100 µM | > 100 µM | > 100 µM | > 100 µM | > 100 | > 100 |  |  |  |  | > 100 µM | > 100 µM | > 100 µM | > 100 µM | > 100 µM | > 100 µM
Oc1ccc(Cl)cc1N=Nc1c(O)ccc2ccccc12 |  | > 100 µM |  | > 100 µM |  | > 100 µM |  | > 100 µM |  | > 100 |  | > 100 µM |  |  |  | > 100 µM |  | 80.3 µM | > 100 µM | 
CC1=NN(c2ccccc2)C(=O)C1N=Nc1ccc(Br)cc1C (stereo not given) |  | > 100 µM |  |  |  | > 100 µM |  | > 100 µM |  | > 100 |  |  |  |  |  | > 100 µM |  | > 100 µM | > 100 µM | 
OCC1OC(NO)C(O)C(O)C1O (stereo not given) |  | > 100 µM |  |  |  | > 100 µM |  | > 100 µM |  | > 100 |  |  |  |  |  |  |  | > 100 µM | > 100 µM | 
C/C(COc1ccccc1)=N\NC(N)=S |  | > 100 µM |  |  |  | > 100 µM |  | > 100 µM |  | > 100 |  |  |  |  |  | > 100 µM |  | > 100 µM | > 100 µM | 
O=S1c2ccccc2N=C(c2cccs2)CC1c1ccccc1O (stereo not given) |  | > 100 µM |  |  |  | > 100 µM |  | > 100 µM |  | > 100 |  |  |  |  |  | > 100 µM |  | > 100 µM | > 100 µM | 
O=S(=O)(O)c1ccc([Se][Se]c2ccc(S(=O)(=O)O)cc2)cc1 |  | > 100 µM |  |  |  | > 100 µM |  | > 100 µM |  | > 100 |  |  |  |  |  | > 100 µM |  | > 100 µM | > 100 µM | 
Cc1ccc(O)c(C(=O)/C=C/c2ccccc2)c1 |  | > 100 µM |  | > 100 µM |  | > 100 µM |  | > 100 µM |  | > 100 |  | > 100 µM |  | > 100 µM |  | > 100 µM |  |  | > 100 µM | 
CNC(=O)c1cc(Oc2ccc(NC(=O)Nc3ccc(Cl)c(C(F)(F)F)c3)cc2)ccn1 | 3.54 µM and 4.39 µM and 3.11 µM | > 10 µM and 19.9 µM and 15.7 µM | 3.01 µM and 2.29 µM and 3.16 µM | > 10 µM and 5.23 µM and 8.69 µM | 2.42 µM and 2.59 µM and 2.63 µM | 8.45 µM and 7.23 µM and 7.5 µM | 2.14 µM and 1.99 µM and 2.2 µM | 6.41 µM and 5.16 µM and 6.15 µM |  |  | 1.96 µM and 1.82 µM and 1.84 µM | 5.74 µM and 4.33 µM and 4.92 µM | 2.62 µM and 2.41 µM and 2.82 µM | 9.82 µM and 7.38 µM and 10 µM | 1.16 µM and 1.31 µM and 1.77 µM | 3.57 µM and 2.93 µM and 6.22 µM | 2.9 µM and 2.08 µM and 2.15 µM | > 10 µM and 6.71 µM and 11 µM | 8.52 µM and 5.23 µM and 4.49 µM | 2.4 µM and 1.96 µM and 1.7 µM
Oc1ccccc1-c1cnnc(-c2ccccc2O)c1 |  | 61.8 µM |  |  |  | 88.3 µM |  | 53.5 µM |  | 44.6 |  |  |  |  |  | 43.6 µM |  | 64.7 µM | 34 µM | 
CCCCCCCCCCCCCC(=O)OCC1OC(=O)C(O)C1O (stereo not given) |  | > 100 µM |  |  |  | > 100 µM |  | > 100 µM |  | > 100 |  |  |  |  |  |  |  | > 100 µM | > 100 µM | 
CCC(/C(=N/NC(=O)C[N+](C)(C)C)c1ccccc1)C1OC(=O)c2ccccc21 (stereo not given) |  | > 100 µM |  |  |  | > 100 µM |  | > 100 µM |  | > 100 |  |  |  |  |  |  |  | > 100 µM | > 100 µM | 
O=C(Nc1ccn(C2CCC(COC(c3ccccc3)(c3ccccc3)c3ccccc3)O2)c(=O)n1)c1ccccc1 (stereo not given) |  | 7.95 µM |  |  |  | 16.9 µM |  | 17.9 µM |  | 6.47 |  | 10.6 µM |  | 10.2 µM |  | 8.71 µM |  | 9.91 µM | 16.7 µM | 
c1ccc2c(c1)CCCc1nnc3nc4ccccc4n3c1-2 | 9.28 µM | > 100 µM | 11.5 µM | > 100 µM | 9.43 µM | > 100 µM | 5.27 µM | > 100 µM | 4.37 | 37.8 | 7.32 µM | > 100 µM | 4.1 µM | > 100 µM | 28.3 µM | > 100 µM |  |  | > 100 µM | 6.54 µM
Cc1ccccc1N=C(c1ccccc1)C1C(=O)c2ccccc2C1=O | 24.6 µM | > 100 µM |  |  | 24.9 µM | > 100 µM | 18 µM | 96.6 µM | 1.32 | 5.63 | 3.44 µM | 14.8 µM | 1.48 µM | 19.3 µM | 3.32 µM | 59.8 µM | 0.562 µM | 6.66 µM | 30.7 µM | 11.6 µM
O=S1(=O)CC#CC[C@@H](CO)[C@@H](CO)CC#CC1 |  | > 100 µM |  |  |  | > 100 µM |  | > 100 µM |  | > 100 |  |  |  |  |  | > 100 µM |  | 68.2 µM | > 100 µM | 
O=C(NNC(=O)/C(=C/c1cccc([N+](=O)[O-])c1)NC(=O)c1ccccc1)Nc1ccc(Cl)cc1 |  | 32.4 µM |  |  |  | 30.8 µM |  | 34.4 µM |  | 25.4 |  |  |  |  |  | 25.5 µM |  | 30 µM | 30.3 µM | 
